Laboratory results from patent US7435837B2, “Dihydrobenzofuranyl alkanamine derivatives and methods for using same” (Wyeth, priority 2003, dated 2008).

Key:
[1] = biological target: T1, human 5-HT2C receptor (Homo sapiens, UniProt P28335); test: 5-HT2C receptor-stimulated calcium mobilization (FLIPR) in CHO cells; assay type: cell-based; details: for EC50: calcium mobilization, CHO cells stably expressing human 5-HT2C, read-out: 5-HT2C Function EC50; for 5-HT2C Function Emax (%) / Emax: percentage of the response observed with a maximally effective concentration of 5-HT; for Emax: CHO, read-out: 5-HT2C Function Emax (%);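 for all read-outs here: Fluo-3-AM fluorescence read on FLIPR every 1 s, agonist added after 10 baseline reads, response taken as peak minus lowest raw fluorescence count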
T1 sequence (P28335 33-458): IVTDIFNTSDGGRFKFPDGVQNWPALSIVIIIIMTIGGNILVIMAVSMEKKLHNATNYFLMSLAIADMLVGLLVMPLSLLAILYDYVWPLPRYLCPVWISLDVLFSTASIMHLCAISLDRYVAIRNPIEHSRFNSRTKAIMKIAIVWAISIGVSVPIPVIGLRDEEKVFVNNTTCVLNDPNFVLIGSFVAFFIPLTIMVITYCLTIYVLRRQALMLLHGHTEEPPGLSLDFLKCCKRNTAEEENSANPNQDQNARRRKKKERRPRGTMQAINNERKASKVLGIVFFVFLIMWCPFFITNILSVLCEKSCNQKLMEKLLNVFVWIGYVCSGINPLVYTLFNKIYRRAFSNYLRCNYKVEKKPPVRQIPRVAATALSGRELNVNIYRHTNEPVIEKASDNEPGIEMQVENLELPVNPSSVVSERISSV

[2] = biological target: T2, human 5-hydroxytryptamine-2C (h5-HT2C) receptor (Homo sapiens, UniProt P28335); test: [125I]DOI binding to membranes of CHO cells expressing the human 5-HT2C receptor; details: [125I]DOI radioligand, CHO cell membranes, room temperature 60 min; read-out: 5-HT2C Affinity Ki
T2 construct: expressed in transfected cells; host or cells: CHO (Chinese Hamster Ovary) cells; membranes
T2 sequence (P28335 33-458): T1 sequence (P28335 33-458)

`CC(C)c1cccc2c1OC(CN)C2` (single isomer, unassigned; (-)) [Example 19, (−)-(7-isopropyl-2,3-dihydro-1-benzofuran-2-yl)methylamine] was tested, and the EC50 [1] was 66 nM, the “5-HT2C Function Emax (%)” value [1] was 100% and the Ki [2] was 2 nM.
For `NCC1Cc2cccc(-c3cccc(Cl)c3)c2O1` (single isomer, unassigned; (+)) [Example 66, (+)-1-[7-(3-chlorophenyl)-2,3-dihydro-1-benzofuran-2-yl]methanamine], the EC50 [1] was 250 nM, the “5-HT2C Function Emax (%)” value [1] was 100% and the Ki [2] was 5 nM.
For `COc1cc2c(c(-c3ccc(F)c(Cl)c3)c1)OC(CN)C2` (racemic) [Example 373, (±)-{[7-(3-chloro-4-fluorophenyl)-5-methoxy-2,3-dihydro-1-benzofuran-2-yl]methyl}amine], the Emax [1] was 60%, the EC50 [1] was 859 nM and the Ki [2] was 61 nM.
Compound `COc1ccc(C)cc1-c1cc(F)cc2c1OC(CN)C2` (racemic) [Example 225, (±)-{[5-fluoro-7-(2-methoxy-5-methylphenyl)-2,3-dihydro-1-benzofuran-2-yl]methyl}amine] has an Emax [1] of 90%, an EC50 [1] of 3 nM and a Ki [2] of 1.2 nM.
In the case of `NCC1Cc2cc(F)cc(-c3cccnc3)c2O1` (single isomer, unassigned; (-)) [Example 207, (−)-[(5-fluoro-7-pyridin-3-yl-2,3-dihydro-1-benzofuran-2-yl)methyl]amine], the Emax [1] is reported as 80%, the EC50 [1] is reported as 112 nM and the Ki [2] is reported as 128 nM.
Work on `NCC1Cc2cccc(-c3ccccc3Cl)c2O1` (single isomer, unassigned; (-)) [Example 129, (−)-1-[7-(2-chlorophenyl)-2,3-dihydro-1-benzofuran-2-yl]methanamine] yielded an Emax [1] of 100%, an EC50 [1] of 0.2 nM and a Ki [2] of 0.3 nM.
`NCC1Cc2ccc(F)c(-c3ccccc3Cl)c2O1` (racemic) [Example 398, (±)-{[7-(2-chlorophenyl)-6-fluoro-2,3-dihydro-1-benzofuran-2-yl]methyl}amine] gave an Emax [1] of 100%, an EC50 [1] of 0.1 nM and a Ki [2] of 0.04 nM.
Work on `COc1ccc(Cl)cc1-c1cc(Cl)cc2c1OC(CN)C2` (racemic) [Example 257, (±)-{[5-chloro-7-(5-chloro-2-methoxyphenyl)-2,3-dihydro-1-benzofuran-2-yl]methyl}amine] yielded an Emax [1] of 80%, an EC50 [1] of 194 nM and a Ki [2] of 28 nM.
In the case of `Cc1cc2c(c(-c3c(Cl)cccc3Cl)c1)OC(CN)C2` (racemic) [Example 302, (±)-{[7-(2,6-dichlorophenyl)-5-methyl-2,3-dihydro-1-benzofuran-2-yl]methyl}amine], the Emax [1] is reported as 100%, the EC50 [1] is reported as 2 nM and the Ki [2] is reported as 0.3 nM.
`CNCC1Cc2cc(C)cc(-c3cc(Cl)ccc3Cl)c2O1` (racemic) [Example 486, (±)-{[7-(2,5-dichlorophenyl)-5-methyl-2,3-dihydro-1-benzofuran-2-yl]methyl}methylamine] showed an Emax [1] of 90%, an EC50 [1] of 5 nM and a Ki [2] of 0.2 nM.
For `Cc1cc(Cl)ccc1-c1cccc2c1OC(CN)C2` (racemic) [Example 167, (±)-{[7-(4-chloro-2-methylphenyl)-2,3-dihydro-1-benzofuran-2-yl]methyl}amine], the Emax [1] was 90%, the EC50 [1] was 21 nM and the Ki [2] was 3.1 nM.
Work on `NCC1Cc2c(cccc2-c2ccccc2C(F)(F)F)O1` (racemic) [Example 122, (±)-1-{4-[2-(trifluoromethyl)phenyl]-2,3-dihydro-1-benzofuran-2-yl}methanamine] yielded an Emax [1] of 70%, an EC50 [1] of 931 nM and a Ki [2] of 95 nM.
Work on `CNCC1Cc2cccc(-c3cccc(OC)c3)c2O1` (racemic) [Example 417, (±)-[(N-methyl-1-[7-(3-methoxyphenyl)-2,3-dihydro-1-benzofuran-2-yl]methanamine] yielded an Emax [1] of 60%, an EC50 [1] of 183 nM and a Ki [2] of 3.7 nM.
`NCC1Cc2cc(F)cc(-c3cccnc3)c2O1` (racemic) [Example 206, (±)-[(5-fluoro-7-pyridin-3-yl-2,3-dihydro-1-benzofuran-2-yl)methyl]amine] was tested, and the Emax [1] was 90%, the EC50 [1] was 4 nM and the Ki [2] was 1.7 nM.
With `Cc1cccc(-c2cccc3c2OC(CN)C3)c1` (single isomer, unassigned; (+)) [Example 42, (+)-1-[7-(3-methylphenyl)-2,3-dihydro-1-benzofuran-2-yl]methanamine] the Emax [1] was 100%, the EC50 [1] was 162 nM and the Ki [2] was 17 nM.
`NCC1Cc2cccc(-c3c(Cl)cccc3Cl)c2O1` (single isomer, unassigned; (+)) [Example 142, (+)-1-[7-(2,6-dichlorophenyl)-2,3-dihydro-1-benzofuran-2-yl]methanamine] was tested, and the EC50 [1] was 101 nM, the “5-HT2C Function Emax (%)” value [1] was 80% and the Ki [2] was 1.6 nM.
`Cc1cc2c(c(-c3ccc(Cl)cc3)c1)OC(CN)C2` (racemic) [Example 292, (±)-{[7-(4-chlorophenyl)-5-methyl-2,3-dihydro-1-benzofuran-2-yl]methyl}amine] showed an Emax [1] of 100%, an EC50 [1] of 66 nM and a Ki [2] of 4.9 nM.
`NCC1Cc2cccc(-c3cccc(Cl)c3)c2O1` (racemic) [Example 65, (±)-1-[7-(3-chlorophenyl)-2,3-dihydro-1-benzofuran-2-yl]methanamine] gave an Emax [1] of 100%, an EC50 [1] of 187 nM and a Ki [2] of 11 nM.
`CNCC1Cc2cc(C)cc(-c3c(C)cccc3C)c2O1` (racemic) [Example 489, (±)-{[7-(2,6-dimethylphenyl)-5-methyl-2,3-dihydro-1-benzofuran-2-yl]methyl}methylamine] gave an Emax [1] of 90%, an EC50 [1] of 39 nM and a Ki [2] of 3 nM.
`Cc1cccc(C)c1-c1cccc2c1CC(CN)O2` (single isomer, unassigned; (+)) [Example 126, (+)-1-[4-(2,6-dimethylphenyl)-2,3-dihydro-1-benzofuran-2-yl]methanamine] gave an Emax [1] of 40%, an EC50 [1] of 2720 nM and a Ki [2] of 17 nM.
`CNCC1Cc2cc(F)cc(-c3cccnc3)c2O1` (racemic) [Example 459, (±)-[(5-fluoro-7-pyridin-3-yl-2,3-dihydro-1-benzofuran-2-yl)methyl]methylamine] gave an Emax [1] of 90%, an EC50 [1] of 16 nM and a Ki [2] of 24 nM.
`Cc1ccccc1-c1cc(C#N)cc2c1OC(CN)C2` (racemic) [Example 311, (±)-2-(aminomethyl)-7-(2-methylphenyl)-2,3-dihydro-1-benzofuran-5-carbonitrile] gave an Emax [1] of 90%, an EC50 [1] of 63 nM and a Ki [2] of 25 nM.
For `NCC1Cc2cccc(Cc3ccccc3)c2O1` (single isomer, unassigned; (-)) [Example 17, (−)-1-(7-benzyl-2,3-dihydro-1-benzofuran-2-yl)methanamine], the EC50 [1] was 100 nM, the “5-HT2C Function Emax (%)” value [1] was 70% and the Ki [2] was 66 nM.
`NCC1Cc2cccc(-c3ccc(Cl)cc3)c2O1` (racemic) [Example 76, (±)-1-[7-(4-chlorophenyl)-2,3-dihydro-1-benzofuran-2-yl]methanamine] showed an Emax [1] of 90%, an EC50 [1] of 25 nM and a Ki [2] of 3 nM.
`NCC1Cc2cc(F)cc(-c3cccnc3)c2O1` (single isomer, unassigned; (+)) [Example 208, (+)-{[5-fluoro-7-pyridin-3-yl-2,3-dihydro-1-benzofuran-2-yl]methyl}amine] was tested, and the EC50 [1] was 0.36 nM, the “5-HT2C Function Emax (%)” value [1] was 100% and the Ki [2] was 1.9 nM.
For `Cc1cc2c(c(-c3cc(Cl)ccc3Cl)c1)OC(CN)C2` (racemic) [Example 300, (±)-{[7-(2,5-dichlorophenyl)-5-methyl-2,3-dihydro-1-benzofuran-2-yl]methyl}amine], the Emax [1] was 90%, the EC50 [1] was 3 nM and the Ki [2] was 0.1 nM.
`Cc1ccccc1-c1cc(Cl)cc2c1OC(CN)C2` (racemic) [Example 95, (±)-1-[5-chloro-7-(2-methylphenyl)-2,3-dihydro-1-benzofuran-2-yl]methanamine] showed an Emax [1] of 100%, an EC50 [1] of 65 nM and a Ki [2] of 1 nM.
With `Cc1c(Cl)cc(C(C)C)c2c1CC(CN)O2` (single isomer, unassigned; (+)) [Example 23, (+)-1-(5-chloro-7-isopropyl-4-methyl-2,3-dihydro-1-benzofuran-2-yl)methanamine] the EC50 [1] was 73 nM, the “5-HT2C Function Emax (%)” value [1] was 80% and the Ki [2] was 9 nM.
With `NCC1Cc2cccc(-c3cccc(F)c3)c2O1` (single isomer, unassigned; (+)) [Example 131, (+)-1-[7-(3-fluorophenyl)-2,3-dihydro-1-benzofuran-2-yl]methanamine] the EC50 [1] was 34 nM, the “5-HT2C Function Emax (%)” value [1] was 90% and the Ki [2] was 1.5 nM.
`CNCC1Cc2cc(F)cc(-c3c(C)cccc3C)c2O1` (single isomer, unassigned; (-)) [Example 559, (−)-{[7-(2,6-dimethylphenyl)-5-fluoro-2,3-dihydro-1-benzofuran-2-yl]methyl}methylamine] was tested, and the EC50 [1] was 7 nM, the “5-HT2C Function Emax (%)” value [1] was 90% and the Ki [2] was 0.3 nM.
`Cc1ccc(-c2cccc3c2OC(CN)C3)cc1` (racemic) [Example 70, (±)-1-[7-(4-methylphenyl)-2,3-dihydro-1-benzofuran-2-yl]methanamine] showed an Emax [1] of 100%, an EC50 [1] of 22 nM and a Ki [2] of 2 nM.
